Values joined by “and” are separate entries in the source; they are usually repeats but may differ in a detail not shown here. Equal entries are not always repeated.

These results are taken from patent US20100003217A1, “Compounds and Pharmaceutical Compositions for the Treatment of Viral Infections” (priority 2008, published 2010).

Series [1] in a line: Metabolite profiling in monkey liver microsomes. The series is classed as in vitro ADME. Details: key: +: peak detected; ?: peak observed; ND: not detected. The following applies: 50 μM Compound 1, 2 hours. The method, then:
(§1) Preliminary identification of putative metabolites was conducted by comparing the retention time of observed metabolites with retention times obtained with chemically synthesized standards using the following HPLC-UV method:
(§2) Incubations with liver microsomes, liver cytosol or pig liver esterase were conducted in a final volume of 0.1 mL per incubation time point. Pooled microsomal protein (1.0 mg/mL) suspended in incubation buffer (0.1 M potassium phosphate, pH 7.4) was incubated for 2 hours at 37° C. with 50 μM Compound 1 from a stock solution in DMSO (final DMSO concentration was 0.1%); the microsomal reaction was initiated by the addition of an NADPH regenerating system (1.3 mM NADP^+, 3.3 mM glucose-6-phosphate, 0.4 U/ml glucose-6-phosphate dehydrogenase, and 3.3 mM MgCl2, final concentrations). Incubations with no NADPH or no protein served as controls. Reactions were terminated by the addition of 0.1 mL of stop solution (acetonitrile). The samples were vortex-mixed for 30 sec and then centrifuged at 10,000×g for 10 min. The supernatant was dried using a Labconco CentriVap concentrator and the dry residue reconstituted in water, transferred to an HPLC glass vial and analyzed by HPLC-UV method 2 (described above).
(§3) Results: Preliminary identification was accomplished by comparing LC elution of metabolites with that of available synthetic standards of putative metabolites (FIG. 2). Metabolites U1, U2 and U3 were characterized based on the retention times.
Background: Liver microsomes are a subcellular fraction often used to study metabolism.

A short description of series [2]: Metabolite profile in rat feces. It counts as in vivo, male Sprague-Dawley rats. The following applies: for Percent of Dose, Feces 0-24 h: after [14C]Compound 1; for % AD / % HPLC (percent of HPLC peak area in the sample extract) / fecal component, % of the administered dose (% AD): 24 h collection; for % of the total fecal excretion / fecal component, % of the administered dose (% AD): rat feces. The method, then: Pooled samples were prepared for the 24 h time interval from Groups 1C and 2C by combining a fixed percentage of the total weight of each individual animal sample homogenate for each group. The aliquots were pooled in a 15-mL polypropylene centrifuge tube. To the pooled sample (approximately 3 g each), 4.5 mL of MeOH-water (70:30) was added. The sample was vortexed for one minute, sonicated for 10 minutes, and then centrifuged at 5700×g for 10 minutes. The supernatant was transferred to a tube and the total volume of the supernatant was measured. The extraction procedure was repeated two additional times. The radioactivity in each extract was determined by LSC of duplicate aliquots (20 μL each) for extraction recovery. A portion (10% of total volume) of each extract was pooled for analysis by LSC and HPLC. The combined extracts were diluted (1:4) with aqueous mobile phase and analyzed using HPLC method 1 to obtain the metabolic profile. For comparing the in vitro with the in vivo metabolism data, these same fecal samples were analyzed by HPLC method 2.
(§4) Percent of the administered dose (% AD) for parent drug and each metabolite at each collection period=(% of the total radioactivity in the sample attributed to the metabolite)*(total radioactivity expressed as % of the administered dose, recovered during the corresponding collection period).
The samples were analyzed by HPLC with radiochemical detection. The distribution of metabolites as % of the administered dose was derived from these analyses. Both pooled fecal extracts were also analyzed by HPLC method 2. Metabolites R^1, R^2, R^3, R^4, R^5, R^6, R^7 and R^8 were characterized based on retention time.

Series [3] can be described thus: Metabolite profiling in rat liver microsomes. On the set-up: key: +: peak detected; ?: peak observed; ND: not detected. The following applies: 50 μM Compound 1, 2 hours. It counts as in vitro ADME. The protocol: as §1, §2
Results: Preliminary identification was accomplished by comparing LC elution of metabolites with that of available synthetic standards of putative metabolites (FIG. 2). […]

The nature of series [4]: Metabolite profiling in human liver microsomes. As to conditions: 50 μM Compound 1, 2 hours. The series is classed as in vitro ADME. On the set-up: key: +: peak detected; ?: peak observed; ND: not detected. The protocol:
as §1, §2, §3

A short description of series [5]: Excretion of administered dose in rat urine and feces. It counts as in vivo, male Sprague-Dawley rats. As to conditions: for Percent of Dose, Total (urine, feces and liver): Oral, 24 h after [14C]Compound 1. The method, then:
Isotopically diluted [^14C]-Compound 1 was administered intravenously to male Sprague-Dawley rats at 50 mg/kg or by oral gavage at 100 mg/kg.
as §4
The urine and feces of each animal were analyzed for radiolabel content.

The mark [6] stands for this setting: group 1C (IV) pooled fecal extract.
[7] abbreviates: group 2C (PO) pooled fecal extract.
[8] abbreviates: rat, Group 1A: IV 50 mg/kg, termination 2 h.
Setting [9] is: rat, Group 1B: IV 50 mg/kg, termination 6 h.
Where [10] appears, read: rat, Group 1C: IV 50 mg/kg, termination 24 h.
The mark [11] stands for this setting: rat, Group 2A: PO 100 mg/kg, termination 2 h.
[12] abbreviates: rat, Group 2B: PO 100 mg/kg, termination 6 h.
The mark [13] stands for this setting: rat, Group 2C: PO 100 mg/kg, termination 24 h.

As to `CC(C)(CO)C(=O)SCCOP(=O)(NCc1ccccc1)OC[C@H]1O[C@@H](n2cnc3c(=O)[nH]c(N)nc32)[C@](C)(O)[C@@H]1O` (mixture of isomers) [Compound 1, 3-hydroxy-2,2-dimethyl-thiopropionic acid S-(2-{[(2R,3R,4R,5R)-5-(2-amino-6-oxo-1,6-dihydro-purin-9-yl)-3,4-dihydroxy-4-methyl-tetrahydro-furan-2-ylmethoxy]-benzylamino-phosphoryloxy}-ethyl) ester], the “In vitro metabolite profile in microsomes following incubation with Compound 1 (peak detection)” value (from here on “In vitro metabolite profile”) in series [1], in series [3] and in series [4] was “+” each time. Further, the results for the “Total excretion (% AD), feces” value in series [2] (IV (1C)) and in series [2] (PO (2C)) were 19.7 % AD and 65.6 % AD, respectively. In addition, the “Percent of Dose, Feces 0-24 h” value in series [2] (IV) is 19.7% of Dose; in series [2] (Oral), 65.6% of Dose. Moreover, the “% AD” value turned out to be 19.7 % AD in series [2] (setting [6]) and 65.6 % AD in series [2] (setting [7]). In addition, the “% HPLC (percent of HPLC peak area in the sample extract)” value in series [2] (setting [6]) was determined as 50.6%; in series [2] (setting [7]) it was 71.9%. In addition, the results for the “% of the total fecal excretion” value in series [2] (IV dose 50 mg/kg) and in series [2] (PO dose 100 mg/kg) were 50.6% and 71.9%, respectively. Also, the “fecal component, % of the administered dose (% AD)” value in series [2] (IV dose 50 mg/kg, 50 mg/kg) is 19.7 % AD and 20 % AD; in series [2] (PO dose 100 mg/kg, 100 mg/kg) it was 65.6 % AD and 66 % AD. The “Total excretion (% AD), total (urine + feces)” value is reported as 45.9 % AD in series [5] (IV (1C)) and 65.6 % AD in series [5] (PO (2C), urine data estimated). For the same compound, in series [5], the “Percent of Dose, Total (urine, feces and liver)” value (“Percent of Dose, Total” below) was 65.6% of Dose. The “Total excretion (urine + feces), % of the administered dose” value in series [5] (rat, IV dose) is recorded as 45.9%; in series [5] (rat, PO dose) it was 65.6%. Further, the “radioactivity recovered in feces (% of dose)” value in series [5] (rat, IV dose, 24 h) is recorded as 39%. Also, the “radioactivity recovered in urine (% of dose)” value in series [5] (rat, IV dose, 24 h) amounted to 47%. In addition, the “Fecal Excretion (% AD)” value in series [5] (setting [8]) worked out at 0.05 ± 0.08 % AD; in series [5] (setting [9]), 0.13 ± 012 % AD; in series [5] (setting [10]) it was 39.0 ± 4.0 % AD; in series [5] (setting [11]) it was 0.001 ± 0.001 % AD; in series [5] (setting [12]), 0.006 ± 0.005 % AD; in series [5] (setting [13]), 91.3 ± 8.7 % AD. Also, the “Urinary + Fecal Excretion (% AD)” value was 26.0 ± 2.3 % AD in series [5] (setting [8]); 27.8 ± 4.9 % AD in series [5] (setting [9]); 86.0 ± 4.8 % AD in series [5] (setting [10]); 0.05 ± 0.06 % AD in series [5] (setting [11]); 0.36 ± 0.18 % AD in series [5] (setting [12]); 94.1 ± 8.9 % AD in series [5] (setting [13]). Further, the “Urinary Excretion (% AD)” value in series [5] (setting [8]) was 25.9 ± 2.4 % AD; in series [5] (setting [9]), 27.7 ± 4.9 % AD; in series [5] (setting [10]), 46.9 ± 4.1 % AD; in series [5] (setting [11]) it was 0.05 ± 0.06 % AD; in series [5] (setting [12]) it was 0.36 ± 0.18 % AD; in series [5] (setting [13]), 2.84 ± 0.82 % AD.
As to `C[C@@]1(O)[C@H](O)[C@@H](CO)O[C@H]1n1cnc2c(=O)[nH]c(N)nc21` [2′-C-methyl guanosine, 9-(2-C-methyl-β-D-ribofuranosyl)guanine, reference compound], the “In vitro metabolite profile” value in series [1], in series [3] and in series [4] was “+” each time. The “Total excretion (% AD), feces” value in series [2] (IV (1C)) is 16.0 % AD; in series [2] (PO (2C)) it was 25.6 % AD. The figures for the “Percent of Dose, Feces 0-24 h” value in series [2] (IV) and in series [2] (Oral) were 16.0% of Dose and 25.6% of Dose, respectively. The “% AD” value in series [2] (setting [6]) is recorded as 16.0 % AD; in series [2] (setting [7]), 25.6 % AD. In addition, the “% HPLC (percent of HPLC peak area in the sample extract)” value in series [2] (setting [6]) is listed as 41.0%; in series [2] (setting [7]), 28.1%. The “% of the total fecal excretion” value in series [2] (IV dose 50 mg/kg) is recorded as 41.0%; in series [2] (PO dose 100 mg/kg), 28.1%. Moreover, the “fecal component, % of the administered dose (% AD)” value in series [2] (IV dose 50 mg/kg, 50 mg/kg) is 16 % AD; in series [2] (PO dose 100 mg/kg, 100 mg/kg) it was 25.6 % AD and 26 % AD. The “Total excretion (% AD), total (urine + feces)” value is reported as 34.0 % AD in series [5] (IV (1C)) and 28.2 % AD in series [5] (PO (2C), urine data estimated). For the same compound, the “Percent of Dose, Total” value in series [5] is given as 28.3% of Dose. Besides, the “Total excretion (urine + feces), % of the administered dose” value in series [5] (rat, IV dose) was 34.0%; in series [5] (rat, PO dose), 28.2%.
In the case of `C[C@@]1(O)[C@H](O)[C@@H](COP(=O)(O)NCc2ccccc2)O[C@H]1n1cnc2c(=O)[nH]c(N)nc21` [Compound 2, [(2R)-2-methyl-β-D-ribofuranosyl]guanine-N-benzylaminyl-5′-monophosphate], the “Percent of Dose, Total” value in series [5] is given as 0.001% of Dose.
For `C[C@@]1(O)[C@H](O)[C@@H](COP(=O)(O)O)O[C@H]1n1cnc2c(=O)[nH]c(N)nc21` [Compound 5, [(2R)-2-methyl-β-D-ribofuranosyl]guanine 5′-monophosphate], the “In vitro metabolite profile” value in series [1] and in series [4] was “+” each time.
In the case of `C[C@@]1(O)[C@H](O)[C@@H](COP(=O)(O)OP(=O)(O)O)O[C@H]1n1cnc2c(=O)[nH]c(N)nc21` [Compound 6, [(2R)-2-methyl-β-D-ribofuranosyl]guanine 5′-diphosphate], the “Percent of Dose, Total” value in series [5] is 0.08% of Dose.
